Patent US20260223837A1, “NATURAL LIPID PARTICLE FORMULATIONS FOR AGRICULTURAL APPLICATIONS” (INVAIO SCIENCES, INC., priority 2023, published 2026)

Tests used:
fall army worms (FAW) = test: Corn seedling root application, fall army worm infestation; format: in vivo; settings: for plant mass / fresh weight: in vivo; for FAW mortality: two days post-infestation
Procedure: Two hundred corn seeds of the MBS Hybrid line are sterilized in 15% bleach sterilization solution by placing 50 seeds each in 4 separate 50 mL Falcon tubes and adding 25 mL sterilization solution into each tube. The tubes containing seeds are shaken on an orbital shaker at low speed for 15 min, after which the seeds are rinsed 3 times with sterile MilliQ water in the biological safety cabinet to ensure sterility. Six seeds are then selected from each tube and placed into CYG germination pouches (PhytoAB ca #CYG-38 LB) with 50 ml of sterile DI water. Seeds are allowed to germinate in the dark for 3 days at 25° C. and 60% relative humidity. After 3 days seedlings are moved to climate-controlled chambers with a light: dark cycle of 16:8 at 25° C. and 60% RH. At this time 25 ml of treatment solutions suspended in Hoagland's solution (Sigma-Alderich H2395-1L, 1.3 g/L, pH 6.5) are added to germination pouches. […] Seedlings are allowed to grow and uptake solution for 3 days before FAW infestation.
Six-day-old plants are infested with non-diapausing FAW at a rate of two 2nd instar larvae per plant. […] Before infestation germination pouches are sealed to prevent FAW from making direct contact with nutrient and NLP solutions. FAW are then allowed to feed on plants for a duration of 2 days in a Percival incubator (25° C., 50% RH, 16:8 Light: dark cycle).
FAW mortality is scored two days post-infestation by removing larvae from plants and probing 3 times. Larvae that are unresponsive to probing or not recovered are considered dead and the proportion of surviving larvae over initial infestation numbers are compared across treatments. Plant mass is also recorded by weighing individual seedlings after larvae are removed and average mass of seedlings are compared across treatments.

tomato hornworm (THW) = test: Tomato seed priming, tomato hornworm infestation; format: in vivo; settings: seed priming 24 hr
Procedure: Tomato seeds are surface-sterilized by 1 ml 25% Bleach with 0.025% Triton X-100 in 1.5 ml centrifuge tube, then washed 3 times with 1 ml sterile water. Tomato seeds (N=50) are primed in 0.3 ml of below treatment solutions in a 1.5 ml centrifuge tube for 24 hr.
The primed tomato seeds (N=14) are germinated and grown on a precut mesh (0.08″×0.025″ Opening; Mcmaster-Carr) in 20 ml half strength Murashige and Skoog Basal Medium (MP Bio, Cat #0926231—CF) in a deep petri dish (100 mm×25 mm). The petri dishes are placed in large plastic container (236 Oz) with holes on both sides of the container and 100 ml MilliQ water to maintain high humidity. The containers are placed in a Percival incubator (about 25° C., 50% relative humidity). After 10 days, the mesh along with the seedlings on it is moved from the petri dish containing half strength MS media and excess media on mesh is dried by damping the roots on paper towels. After 3 days, the mesh with seedlings is removed from the petri dish and the roots are washed twice with MilliQ water and placed on paper towel to blot off excess water. The mesh with tomato seedlings is transferred to a new petri dish with 25 ml of 1% Phytagel (P8169-1 KG, Sigma-Aldrich). […]
The insect mortality is scored after 2 days, and the mortality is normalized against negative control (water treatment) to calculate the % larval control.

whiteflies = test: Tomato seedling root treatment, whitefly exposure; format: in vivo; settings: after 7 days
Procedure: Tomato seeds (N=14) are germinated and grown on a precut mesh (0.08″×0.025″ Opening; Mcmaster-Carr, Cat #1100T45) in 20 ml ½ MS media ([…] filtered without sucrose added) in a deep petri dish (100 mm×25 mm). The petri dishes are placed in a large plastic container (Sistema; 236 Oz) with holes on both sides of the container and 100 ml MilliQ water to maintain high humidity. Large plastic containers are placed in a Percival incubator (25° C., 50% RH). After 10 days, the mesh along with the seedlings on it is moved from the petri dish containing half strength MS media, and excess media on mesh is dried by blotting the roots on paper towels. […] After 3 days, the mesh with seedlings is taken out of petri dish and the roots are washed with MilliQ water 2 times and placed on a paper towel to blot off excess water. The mesh with tomato seedlings is transferred to a new petri dish with 25 ml of 1% phytogel (P8169-1 KG, Sigma-Aldrich).
From a whitefly infested plant in a rearing cage, leaves that are infested with about 200 white flies are excised using scissors and placed in a petri dish. The petri dish is placed at the base of the tomato plants on the phytagel taking care to not damage the tomato plant roots. The boxes with the tomato plant and the whiteflies are placed in an incubator with 16 h light/8 hr dark photoperiod, 26° C. and 50% humidity. […]

WCRW [1] = test: Field-scale in-furrow treatment, open field trial (Example 53); format: in vivo, western corn rootworm (WCRW); settings: 2 mg/ml
[2] = test system: Colorado Potato Beetle (CPB); test: Tomato seedling root uptake assay followed by CPB infestation; settings: 160 ug/ml in DCM
WCRW [3] = test: Small scale (green house 10 inch pot) in-furrow assay and dose-response; format: in vivo, western corn rootworm (WCRW); settings: 2 mg/ml DE, in-furrow 3 ml, day 28
Procedure: Jumbo cotton balls were packed into the bottom of 10″ tall and 2.7″ diameter cylindrical containers. Wide straws were inserted for later use during the infestation process, then packed with ~660 g of silt loam soil. Soil was then watered with about 150 ml of water in three 50 ml increments 24 hrs before planting. A hole was made at a depth of 1.5 inch from the top of the soil. […] The particle size, PDI and zeta potential of these NLPs are similar to those prepared with 80 ug/ml of DE in the suspension (Table 8). The treatments were added around the edge of the hole for planting. A seed was then planted in the hole and covered with soil. Containers with seeds were then placed in the greenhouse to continue growing for 7 days until ready for infestation.
2nd instar WCRW larvae were shipped from the supplier (Crop Characteristic Inc., Farmington, MN USA) and stored at 10° C. until ready for use (less than a week). The 1st and 2nd infestations were conducted 7 and 14 days after seed planting, respectively. For each infestation, approximately 10 larvae were transferred to 0.5 ml microcentrifuge tube and released into soil via dropping the tube with the open mouth facing down into straws inserted when the pots were filled with soil. […]
The fresh weight for each whole seedling was measured using a scale and recorded.

[4] = UV stability assay of deltamethrin in NLPs; format: physicochemical
From the text: In addition, the four NLP formulations were also mixed with lignosulfonate (Borresperse NA, Borregaard), a widely used UV absorption agent at 3% final concentration, ten samples were exposed to UV light, and ten represented control samples that were not exposed to UV light.
For the samples to be exposed to UV exposure, the cap of the Eppendorf tube was removed, and a single layer of Saran wrap (SC Johnson) was pulled across the top and secured with a rubber band. For the control samples, the Eppendorf tube was capped and wrapped entirely in aluminum foil to completely block UV radiation.
All samples were placed 15 cm below the UV light (Hortilux PowerVEG Full Spectrum with UV Bulb, Growershouse, Cat #901678) with the UV radiation intensity at round 150 milliwatts per square centimeter (mW/cm^2). For each treatment, two samples were analyzed by LC-MS at t=0 (immediately after preparation), at day 1, day 2, day 3, and day 6. For each timepoint two UV samples and 2 control samples were removed for analysis by LC-MS/MS. Prior to analysis, the samples were diluted to 1 ml with methanol in the original 2 mL Eppendorf tubes. A further 100× dilution was performed in methanol and the samples were transferred to HPLC vials for analysis by LC-MS.

Tomato Horn Worm (THW) = test: Tomato seedling root uptake assay followed by THW infestation; settings: in vivo
Procedure: Tomato seeds (N=14) were germinated and grown on a precut mesh (0.08″×0.025″ Opening; Mcmaster-Carr, Cat #1100T45) in 20 ml 0.5×MS media ([…] filtered without sucrose added) in a deep petri dish (100 mm×25 mm). The petri dishes were placed in a plastic container (236 Oz) with holes on both sides of the container and 100 ml MilliQ water to maintain high humidity. The plastic containers with plants were placed in a Percival incubator (25° C., 50% relative humidity).
After 10 days, the mesh along with the seedlings on it was moved from the petri dish containing 0.5×MS media and excess media on mesh was dried by damping the roots on paper towels. The seedlings on the mesh were placed in a new deep petri dish containing formulation solution (20 ml) in the same large plastic container and Percival incubator. […] After 3 days, the mesh with seedlings was taken out of petri dish and the roots were washed with MilliQ water 2 times and placed on a paper towel to blot off excess water. […]
Five THW larvae were placed on the tomato seedlings on mesh in each petri dish and the petri dish was placed in a large plastic container (101 Oz). The insect mortality was scored after 2 days, and the mortality was normalized against negative control (water treatment) to calculate the % larval control.

Fusarium oxysporum = test: Resazurin based Fusarium inhibition assay; format: cell-based; settings: 24 hr incubation, compared to negative controls (DMSO)
Procedure: The purpose of this assay was to quantify the effect of encapsulation of AZO, an antifungal agent, in NLP particles on its efficacy against a fungal pathogen (e.g., Fusarium oxysporum). Encapsulated AZO was compared to unencapsulated counterparts to determine if there is any change in efficacy. Formulations were tested in a 96-well plate and incubated with F. oxysporum conidia (spores) for 24 hr, after which resazurin dye was added. After 4 hr of incubation the color change of resazurin from blue to a fluorescent pink due to fungal respiration was assessed spectrophotometrically and the percent inhibition of respiration, as a measure of fungal growth, was determined by comparison to a conidia-only negative control. […] Fusarium oxysporum was cultured on 50% potato dextrose broth (PDB) agar plates. Using a pipette tip, a small mycelium aliquot was transferred to a 50-mL flask containing carboyxymethyl cellulose medium (CMC). […] Conidia were counted in the resuspended pellet using a hemocytometer, and diluted to 1×10^6 conidia/mL in 20% glycerol solution, from which a 1×10^5 conidia/mL working solution was prepared. […] After 24 h, 10 μL of PrestoBlue reagent was added to each well of the plate, followed by 4 h incubation, after which the fluorescence was read at 570/620 nm with a read height of 7 mm.

SMILES: CN/C(=N\[N+](=O)[O-])NCc1cnc(Cl)s1 [clothianidin]
- plant mass / fresh weight (fall army worms (FAW)): plant mass is the highest
- FAW mortality (fall army worms (FAW)): FAW mortality is the highest
- insect mortality and stunting (tomato hornworm (THW)): significantly higher mortality and stunting
- number of live whiteflies (whiteflies): significantly lower

SMILES: CC1(C)[C@H](C(=O)O[C@H](C#N)c2cccc(Oc3ccccc3)c2)[C@@H]1C=C(Br)Br [Deltamethrin]
- root injury rating (0 to 3) (WCRW [1]): higher root damage than the NLP644 comprising deltamethrin at 2 mg/ml treatment
- phytotoxicity to tomato seedlings [2]: caused phytotoxicity to the tomato seedlings
- protection of whole plant mass and root mass from WCRW (WCRW [3]): less effective in protecting whole plant mass
- Repeat 1 (deltamethrin concentration) ([4]; Repeat 1, initial concentration, LC-MS): 104 µg/mL
- Repeat 2 (deltamethrin concentration) ([4]; Repeat 2, initial concentration, LC-MS): 114 µg/mL
- deltamethrin retention rate (actual deltamethrin/input deltamethrin) ([4]; after 6 days of UV exposure (figure legend)): 15%
- Initial deltamethrin Concentration ([4]; mean of Repeat 1 and 2, LC-MS at t=0, before UV exposure): 109 µg/mL
- plant mass / fresh weight (fall army worms (FAW)): fresh weight comparable to the water treated plants
- FAW mortality (fall army worms (FAW)): none or very low mortality
- phytotoxicity (Tomato Horn Worm (THW)): phytotoxicity (wilting and chlorosis of plant tissue)

SMILES: CO/C=C(/C(=O)OC)c1ccccc1Oc1cc(Oc2ccccc2C#N)ncn1 [azoxystrobin]
- minimum amount required for >90% inhibition of Fusarium (Fusarium oxysporum): 5 µg/mL
